Holding throughout (format): cell-based
The subject of assay [1] is RAJI cells. The experiment in a line: Matador assay, Digitonin-induced death of RAJI cells expressing luciferase reporters. Here is the method:
A similar experiment was conducted with K562, HEL-91-1-17 and RAJI cells stably expressing NLuc from pLENTI-NLuc-AcV5-Blasticidin-Pa08 vector (SEQ ID NO: 92). Cells plated in 30 μl of medium per well were either treated with 30 μl of PBS or 30 μl of PBS containing Digitonin (final concentration 30 μg/ml) for 1 hour at 37° C., in a 5% CO2 incubator. For measurement of NLuc activity, 0.5×CTZ assay buffer was added by automated injector directly to each well of the 384-well white plate containing cells in 60 μl of volume (30 μl of RPMI-10% FBS+30 μl of Digitonin) without prior cell lysis and plates were read for luminescence using BioTek synergy H4 plate reader in well mode.
(§1) Briefly, 20000 cells in 20 μl media were plated in each well of a 384 well plate followed by addition of 20 μl of Digitonin (final concentration 30 μg/ml) or media alone (20 μl) and incubated for 90 minutes.

In assay [2] the test system is HEL-92-1-17 cells. Nature of the assay: Matador assay, Digitonin-induced death of HEL cells expressing a luciferase reporter. The conditions noted are these: Digitonin 30 μg/ml, 1 hour. Here is the method: A 100× stock solution of native coelenterazine (CTZ; Nanolight, cat #303) was made by dissolving 1 mg of lyophilized CTZ powder in 1.1 ml of 100% Methanol supplemented with 30 μl of 6N HCl to avoid oxidation of CTZ with time. To make CTZ assay buffer, the 100× stock solution of CTZ was diluted to 0.5× concentration in PBS. Unless indicated otherwise, a total volume of 15 μl of the CTZ assay buffer (as prepared above) was added using an auto-injector to each well of a 384-well white plate (Greiner, 384 well white plate cat #781075) containing cells expressing the non-secretory form of a copepod luciferase in approximately 50-60 μl volume of medium and plates were read for luminescence in well-mode using BioTek synergyH4 plate reader. In the well-mode, an auto-injector or dispenser is used and assay buffer is added in one well, luminescence is read in that well, then the assay buffer is added to next well and luminescence is read in that well. Where indicated, assay was also conducted in the endpoint mode. In the endpoint mode, an autoinjector or dispenser is not used, the assay buffer is added in all wells manually using a pipette and then luminescence is read in all wells of the plate. For 96 well plates, cells were plated in 200 μl of media and approximately 50 μl of 0.5×CTZ assay buffer was added. […]
(In general: A reporter such as luciferase makes a cellular process visible.)

The test system of assay [3] is Nalm6 cells. The experiment in a line: Dual reporter Matador assay, Digitonin-induced death of Nalm6 cells. The conditions noted are these: Nalm6 cells expressing both GLuc and FfLuc; Digitonin 30 μg/ml, 90 minutes. As to the method: as §1

As for `C[C@@H]1CC[C@@]2(OC1)O[C@H]1[C@@H](O)[C@H]3[C@@H]4CC[C@H]5C[C@@H](O[C@@H]6O[C@H](CO)[C@H](O[C@@H]7O[C@H](CO)[C@@H](O)[C@H](O[C@@H]8OC[C@@H](O)[C@H](O)[C@H]8O)[C@H]7O[C@@H]7O[C@H](CO)[C@H](O)[C@H](O[C@@H]8O[C@H](CO)[C@@H](O)[C@H](O)[C@H]8O)[C@H]7O)[C@H](O)[C@H]6O)[C@H](O)C[C@]5(C)[C@H]4CC[C@]3(C)[C@H]1[C@@H]2C` [Digitonin], in assay [1] (RAJI cells expressing TurboLuc16, Digitonin 90 min), the TLuc activity entry was “increase in TLuc activity”. For the same molecule, the GLuc luciferase activity result in assay [1] (RAJI cells stably expressing GLuc from MSCVhygro-GLuc-HA-G02, Digitonin) was “Essentially similar results”; in assay [2] (HEL-92-1-17 cells stably expressing GLuc, evident even in wells containing a single cell) it was “increase in GLuc luciferase activity”. In addition, the NLuc activity result is reported as “increase in NLuc activity” in assay [1] (RAJI cells stably expressing NLuc, Digitonin 30 μg/ml, 1 hour) and “increase in NLuc activity” in assay [2] (HEL-92-1-17 cells stably expressing NLuc). Moreover, the “FfLuc and GLuc activities” value is “increase in both FfLuc and GLuc activities” in assay [1] (Raji cells expressing both GLuc and FfLuc, Digitonin 30 μg/ml, 90 minutes); “increase in both FfLuc and GLuc activities” in assay [3].

The values are drawn from patent US11307205B2, “Non-radioactive cytotoxicity assays” (University of Southern California, priority 2016, dated 2022).
